Like-named read-outs stand apart in the source and are kept apart here. Where no end group is shown, it is not given here.
Experiments:
Assay in all cases: Direct-binding FRET assay
BATF = biological target: T1, BATF (Homo sapiens, UniProt Q16520); settings: read-out: Kd
T1 construct: made in house
T1 sequence (Q16520 26-89 limits assumed): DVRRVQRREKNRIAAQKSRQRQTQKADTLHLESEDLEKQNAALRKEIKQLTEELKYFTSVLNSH
Experimental: (§1) The direct binding assay was performed manually in 384-well plates and is similar to a previously described assay. Wells were filled with 20 μL of 1 mM TCEP-HCl. A 4 μM stock of acceptor protein was made fresh in 1 mM TCEP-HCl, and 20 μL was titrated in 2-fold dilutions over the wells. […] The direct-binding FRET data were fit as previously described. Briefly, the Kd of the designed peptide homodimer was experimentally determined and used with previously determined target homodimer Kd values to determine the heterodimer Kd. The homodimer Kd values used for the human bZIPs were from; experiments done by […] et al. used the same protein constructs for the human bZIP proteins, the same buffer conditions, and the same assay. The fitting used a system of ordinary differential equations to describe the concentrations of homo and heterodimers formed by the donor (D) and acceptor (A) as a function of the heterodimer Kd. MATLAB was used to simulate the binding experiment for different Kd values, and the value that gave the best agreement between simulation and experiment was assigned. A minimum 15% change in the donor fluorescence upon titrating the acceptor peptide from 0 to 1000 nM was required for a fit to be attempted. If this minimum was not met, the interaction was classified as “NS” for no signal change. […] These interactions were marked “AS” to indicate anomalous signal. We attributed this to interactions between the peptides, the dyes and the walls of the assay plates at low concentrations. These curves could not be fit, given their unusual shapes at low concentrations of acceptor. For such curves, we removed the first five points and re-fit the data. […] One example of this is increasing concentrations of acceptor causing an increase in donor fluorescence.

BATF3 = biological target: T2, BATF3 (Homo sapiens, UniProt Q9NR55); settings: mean or single, read-out: Kd
T2 construct: made in house
T2 sequence (Q9NR55 35-98 limits assumed): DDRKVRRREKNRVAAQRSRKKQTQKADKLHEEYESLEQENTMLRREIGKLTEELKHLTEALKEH
Experimental: as §1

CREB3L1 = biological target: T3, CREB3L1 (Homo sapiens, UniProt Q96BA8); settings: read-out: Kd
T3 construct: made in house
T3 sequence (Q96BA8 290-353 limits assumed): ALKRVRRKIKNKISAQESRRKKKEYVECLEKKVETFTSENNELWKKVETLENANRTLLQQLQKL
Experimental: as §1

FOSL1 = biological target: T4, FOSL1 (Homo sapiens, UniProt P15407); settings: mean or single, read-out: Kd
T4 construct: made in house
T4 sequence (P15407 105-168 limits assumed): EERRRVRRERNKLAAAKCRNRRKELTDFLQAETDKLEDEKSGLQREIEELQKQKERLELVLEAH
Experimental: as §1

JUNB = biological target: T5, JUNB (Homo sapiens, UniProt P17275); settings: mean or single, read-out: Kd
T5 construct: made in house
T5 sequence (P17275 268-331 limits assumed): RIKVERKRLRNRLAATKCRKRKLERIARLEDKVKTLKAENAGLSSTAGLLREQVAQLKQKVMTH
Experimental: as §1

ATF6 = ATF6 (Homo sapiens, UniProt P18850); design: made in house; settings: read-out: Kd
Experimental: as §1

BACH1 = BACH1 (Homo sapiens, UniProt O14867); design: made in house; settings: read-out: Kd
Experimental: as §1

BACH2 = BACH2 (Homo sapiens, UniProt Q9BYV9); design: made in house; settings: read-out: Kd
Experimental: as §1

MAF = MAF (Homo sapiens, UniProt O75444); design: made in house; settings: read-out: Kd
Experimental: as §1

MAFB = MAFB (Homo sapiens, UniProt Q9Y5Q3); design: made in house; settings: read-out: Kd
Experimental: as §1

NFE2L1 = NFE2L1 (Homo sapiens, UniProt Q14494); design: made in house; settings: read-out: Kd
Experimental: as §1

[1] = 4°C, C-terminal fluorescein design as donor, TAMRA target titrated
[2] = 4°C, C-terminal rhodamine design, mean or single
[3] = 4°C, N-terminal rhodamine design, mean or single
[4] = 23°C, C-terminal fluorescein design as donor, TAMRA target titrated
[5] = 23°C, C-terminal rhodamine design, mean or single
[6] = 23°C, N-terminal rhodamine design, mean or single
[7] = 37°C, C-terminal fluorescein design as donor, TAMRA target titrated
[8] = 37°C, C-terminal rhodamine design, mean or single
[9] = 37°C, N-terminal rhodamine design, mean or single
[10] = 4°C, C-terminal rhodamine design
[11] = 4°C, N-terminal rhodamine design
[12] = 23°C, C-terminal rhodamine design
[13] = 23°C, N-terminal rhodamine design
[14] = 37°C, C-terminal rhodamine design
[15] = 37°C, N-terminal rhodamine design

BACH2, sequence (Q9BYV9 646-709 limits assumed): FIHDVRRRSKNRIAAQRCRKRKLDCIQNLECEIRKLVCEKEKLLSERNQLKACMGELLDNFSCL
ATF6, sequence (P18850 306-369 limits assumed): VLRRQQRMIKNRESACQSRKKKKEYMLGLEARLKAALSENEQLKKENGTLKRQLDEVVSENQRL
MAF, sequence (O75444 288-351 limits assumed): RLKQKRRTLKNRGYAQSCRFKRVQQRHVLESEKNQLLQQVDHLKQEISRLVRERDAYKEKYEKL
MAFB, sequence (Q9Y5Q3 238-301 limits assumed): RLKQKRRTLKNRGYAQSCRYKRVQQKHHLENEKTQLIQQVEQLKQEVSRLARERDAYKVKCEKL
NFE2L1, sequence (Q14494 654-717 limits assumed): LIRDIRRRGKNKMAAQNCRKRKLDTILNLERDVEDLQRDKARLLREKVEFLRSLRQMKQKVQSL

Kd (BATF; [1]): > 5000 nM | Kd (BATF; [2]): > 5000 nM | Kd (BATF; [3]): > 1000 nM | Kd (BATF; [4]): > 1000 nM | Kd (BATF; [5]): > 1000 nM | Kd (BATF; [6]): > 1000 nM | Kd (BATF; [7]): > 1000 nM | Kd (BATF; [8]): > 1000 nM | Kd (BATF; [9]): > 1000 nM | Kd (BATF3; [10]): > 5000 nM | Kd (BATF3; [11]): > 1000 nM | Kd (BATF3; [12]): > 1000 nM | Kd (BATF3; [13]): > 1000 nM | Kd (BATF3; [14]): > 1000 nM | Kd (BATF3; [15]): > 1000 nM | Kd (CREB3L1; [1]): > 1000 nM | Kd (CREB3L1; [2]): > 1000 nM | Kd (CREB3L1; [3]): > 1000 nM | Kd (CREB3L1; [4]): > 1000 nM | Kd (CREB3L1; [5]): > 1000 nM | Kd (CREB3L1; [6]): > 1000 nM | Kd (CREB3L1; [7]): > 1000 nM | Kd (CREB3L1; [8]): > 1000 nM | Kd (CREB3L1; [9]): > 1000 nM | Kd (FOSL1; [10]): > 1000 nM | Kd (FOSL1; [11]): > 1000 nM | Kd (FOSL1; [12]): > 1000 nM | Kd (FOSL1; [13]): > 1000 nM | Kd (FOSL1; [14]): > 1000 nM | Kd (FOSL1; [15]): > 1000 nM | Kd (JUNB; [10]): > 1000 nM | Kd (JUNB; [11]): > 1000 nM | Kd (JUNB; [12]): > 1000 nM | Kd (JUNB; [13]): > 1000 nM | Kd (JUNB; [14]): > 1000 nM | Kd (JUNB; [15]): > 1000 nM | Kd (ATF6; [1]): > 5000 nM | Kd (ATF6; [4]): > 1000 nM | Kd (ATF6; [6]): > 1000 nM | Kd (ATF6; [7]): > 1000 nM | Kd (ATF6; [8]): > 5000 nM | Kd (ATF6; 37°C, C-terminal rhodamine design, repeat 1): > 5000 nM | Kd (ATF6; 37°C, C-terminal rhodamine design, repeat 2): > 5000 nM | Kd (ATF6; 37°C, C-terminal rhodamine design, repeat 3): > 5000 nM | Kd (ATF6; [9]): > 1000 nM | Kd (BACH1; [1]): > 1000 nM | Kd (BACH1; [2]): > 1000 nM | Kd (BACH1; [3]): > 5000 nM | Kd (BACH1; [4]): > 1000 nM | Kd (BACH1; [5]): > 1000 nM | Kd (BACH1; [6]): > 1000 nM | Kd (BACH1; [7]): > 1000 nM | Kd (BACH1; [8]): > 1000 nM | Kd (BACH1; [9]): > 1000 nM | Kd (BACH2; [1]): > 1000 nM | Kd (BACH2; [2]): > 1000 nM | Kd (BACH2; [3]): > 1000 nM | Kd (BACH2; [4]): > 1000 nM | Kd (BACH2; [5]): > 1000 nM | Kd (BACH2; [6]): > 1000 nM | Kd (BACH2; [7]): > 1000 nM | Kd (BACH2; [8]): > 1000 nM | Kd (BACH2; [9]): > 1000 nM | Kd (MAF; [1]): > 1000 nM | Kd (MAF; [2]): > 1000 nM | Kd (MAF; [3]): > 1000 nM | Kd (MAF; [4]): > 1000 nM | Kd (MAF; [5]): > 1000 nM | Kd (MAF; [6]): > 1000 nM | Kd (MAF; [7]): > 1000 nM | Kd (MAF; [8]): > 1000 nM | Kd (MAF; [9]): > 1000 nM | Kd (MAFB; [1]): > 1000 nM | Kd (MAFB; [2]): > 5000 nM | Kd (MAFB; [3]): > 1000 nM | Kd (MAFB; [4]): > 1000 nM | Kd (MAFB; [5]): > 5000 nM | Kd (MAFB; [6]): > 1000 nM | Kd (MAFB; [7]): > 1000 nM | Kd (MAFB; [8]): > 5000 nM | Kd (MAFB; [9]): > 1000 nM | Kd (NFE2L1; [1]): > 1000 nM | Kd (NFE2L1; [2]): > 1000 nM | Kd (NFE2L1; [3]): > 1000 nM | Kd (NFE2L1; [4]): > 1000 nM | Kd (NFE2L1; [5]): > 1000 nM | Kd (NFE2L1; [6]): > 1000 nM | Kd (NFE2L1; [7]): > 1000 nM | Kd (NFE2L1; [8]): > 1000 nM | Kd (NFE2L1; [9]): > 1000 nM
Sequence: EREAQLENRVAHLKEKNQELKAQNLHLKEALSEAQNRNQELKNDA [XBP1-d1]

— PMC4335062, “Data-Driven Prediction and Design of bZIP Coiled-Coil Interactions” (PLoS Computational Biology, 2015)
